Patent US11660293B2, “Substituted 2-azabicyclo[3.1.1]heptane and 2-azabicyclo[3.2.1]octane derivatives as orexin receptor antagonists” (Chronos Therapeutics Limited, priority 2017, dated 2023)

Columns and labels:
[1] = molecular target: human Orexin type 2 receptors (Homo sapiens (Human), UniProt O43614); experiment: Scintillation Proximity Assay (SPA) binding assay, [3H]EMPA displacement, HEK-hOX2 membranes
Description: Scintillation Proximity Assay (SPA) Binding Assays
CHO cells stably transfected with human Orexin type 1 receptors (CHO-hOX1) or HEK-293 cells transiently transfected with human Orexin type 2 receptors (HEK-hOX2) were collected after 16 h induction with 5 mM sodium butyrate. The cell pellets were re-suspended, homogenized in 15 mM Tris/HCl pH=7.5, 1 mM EGTA, 0.3 mM EDTA, 2 mM MgCl2, protease inhibitors and centrifuged at 40,000 g (20 min, 4° C.). After re-suspension, homogenization and centrifugation as above, the final pellets were re-suspended in 75 mM Tris/HCl pH=7.5, 1 mM EGTA, 0.3 mM EDTA, 12.5 mM MgCl2, 250 mM Sucrose, protease inhibitors, divided into aliquots and frozen down at −80° C.
CHO-hOX1 cell membranes (6 μg ml^−1) or HEK-hOX2 membranes (8 μg ml^−1) were pre-coupled with 1.0 mg ml^−1 of Wheatgerm Agglutinin-coated Yttrium Silicate (YSi-WGA) SPA beads (Perkin Elmer) in buffer containing 25 mM HEPES pH=7.4, 1 mM CaCl2), 5 mM MgCl2, 0.01% (w/v) BSA, 0.02% (w/v) Pluronic F-127 by shaking at room temperature for 2.5-3 h.
(§1) The binding was performed in a final volume of 200 μl. 100 μl of hOX1 or hOX2 beads-membranes suspension were added to 100 μl of [^3H]SB-674042 or [^3H]EMPA solutions (radioligand concentration 2 nM final in the assay), into the 96-well Isoplates containing the 2 μl/well of compounds to be tested. Nonspecific binding was measured in the presence of 1 μM Almorexant. Assay plates were then incubated at room temperature for 3 h before being counted in a Microbeta scintillation counter (PerkinElmer).
Data were analysed by non-linear regression analysis using XLfit Software.

[2] = molecular target: human Orexin type 1 receptors (Homo sapiens (Human), UniProt O43613); experiment: Scintillation Proximity Assay (SPA) binding assay, [3H]SB-674042 displacement, CHO-hOX1 membranes
Sequence of human Orexin type 1 receptors (O43613 whole entry): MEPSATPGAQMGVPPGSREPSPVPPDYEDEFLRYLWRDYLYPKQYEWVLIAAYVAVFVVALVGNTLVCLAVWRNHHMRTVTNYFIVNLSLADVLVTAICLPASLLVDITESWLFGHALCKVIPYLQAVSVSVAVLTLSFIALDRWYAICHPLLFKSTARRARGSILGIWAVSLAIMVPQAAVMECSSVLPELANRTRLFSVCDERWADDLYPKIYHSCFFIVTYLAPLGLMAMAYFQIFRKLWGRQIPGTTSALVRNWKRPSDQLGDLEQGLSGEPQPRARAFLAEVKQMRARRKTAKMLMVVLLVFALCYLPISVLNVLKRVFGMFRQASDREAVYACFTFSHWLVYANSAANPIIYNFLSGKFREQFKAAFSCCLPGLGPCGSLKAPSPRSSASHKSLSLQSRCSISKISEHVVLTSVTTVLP
Description: as §1, with “Scintillation Proximity Assay (SPA) Binding Assays CHO cells stably transfected with human Orexin type 1 receptors (CHO-hOX1) or HEK-293 cells transiently transfected with human Orexin type 2 receptors (HEK-hOX2) were collected after 16 h induction with 5 mM sodium butyrate. […] The” for “The”, “(PerkinElmer). Data were analysed by non-linear regression analysis using XLfit Software.” for “(PerkinElmer).”

Sequence of human Orexin type 2 receptors (O43614 whole entry): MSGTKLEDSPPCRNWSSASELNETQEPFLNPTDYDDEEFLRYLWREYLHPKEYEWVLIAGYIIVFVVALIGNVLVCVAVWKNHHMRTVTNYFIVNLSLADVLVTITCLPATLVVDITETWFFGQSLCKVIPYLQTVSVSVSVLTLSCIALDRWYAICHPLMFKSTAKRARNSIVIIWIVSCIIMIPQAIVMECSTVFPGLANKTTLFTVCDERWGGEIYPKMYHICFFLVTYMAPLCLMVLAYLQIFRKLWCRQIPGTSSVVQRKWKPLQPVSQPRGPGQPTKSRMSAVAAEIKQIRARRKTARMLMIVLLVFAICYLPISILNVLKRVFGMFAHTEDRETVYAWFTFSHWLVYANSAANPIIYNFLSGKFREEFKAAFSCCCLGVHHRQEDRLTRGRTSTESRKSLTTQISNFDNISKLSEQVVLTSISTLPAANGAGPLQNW

Cc1ccc(-n2nccn2)c(C(=O)N2C3CC(C3)[C@@H](C)C2CNc2nc3cccnc3s2)n1 (stereo partly drawn) [Example 184, cis-N-({4-methyl-2-[6-methyl-3-(2H-1,2,3-triaozl-2-yl)pyridine-2-carbonyl]-2-azabicyclo[3.1.1]heptan-3-yl}methyl)-[1,3]thiazolo[5,4-b]pyridin-2-amine]
OX2 pKi (SPA binding) ([1]; Table 2, [3H]EMPA 2 nM): 5.07
OX1 pKi (SPA binding) ([2]; Table 2, [3H]SB-674042 2 nM): 8.08

Cc1ccc(-n2cccn2)c(C(=O)N2C3CC(C3)[C@H](C)C2COc2ccc(F)cc2)n1 (mixture of isomers) [Example 122, trans-3-[(4-fluorophenoxy)methyl]-4-methyl-2-[6-methyl-3-(1H-pyrazol-1-yl)pyridine-2-carbonyl]-2-azabicyclo[3.1.1]heptane]
OX2 pKi (SPA binding) ([1]; Table 2, [3H]EMPA 2 nM): 5.4
OX1 pKi (SPA binding) ([2]; Table 2, [3H]SB-674042 2 nM): 7.22

Cc1ccc(OCC2CC3CC(C3)N2C(=O)c2nc(C)sc2-c2ccccc2)cc1 (stereo not shown) [Example 48]
OX2 pKi (SPA binding) ([1]; Table 1, [3H]EMPA 2 nM): 6.53
OX1 pKi (SPA binding) ([2]; Table 1, [3H]SB-674042 2 nM): 7.45

Cc1nc(C(=O)N2C3CC(C3)[C@@H](C)[C@@H]2COc2cc3ccccc3cn2)c(-c2ccccc2)s1 (single isomer, unassigned) [Example 88, 3-{[(3S,4S or 3R,4R)-4-methyl-2-(2-methyl-5-phenyl-1,3-thiazole-4-carbonyl)-2-azabicyclo[3.1.1]heptan-3-yl]methoxy}isoquinoline]
Ki ([1]; Table 1, [3H]EMPA 2 nM, read-out: OX2 pKi (SPA binding) (converted)): 0.275 µM
Ki ([2]; Table 1, [3H]SB-674042 2 nM, read-out: OX1 pKi (SPA binding) (converted)): 0.012 µM

Cc1ccc(-n2nccn2)c(C(=O)N2C3CC(C3)[C@@H](C)C2COc2ccc(Cl)cn2)n1 (stereo partly drawn) [Example 99, cis-3-{[(5-chloropyridin-2-yl)oxy]methyl}-4-methyl-2-[6-methyl-3-(2H-1,2,3-triazol-2-yl)pyridine-2-carbonyl]-2-azabicyclo[3.1.1]heptane]
OX2 pKi (SPA binding) ([1]; Table 1, [3H]EMPA 2 nM): 6.18
OX1 pKi (SPA binding) ([2]; Table 1, [3H]SB-674042 2 nM): 7.37

Cc1ccc(-c2nccs2)c(C(=O)N2C3CC(C3)[C@@H](C)C2CNc2ccc(F)cc2)c1 (stereo partly drawn) [Example 202, cis-4-fluoro-N-({4-methyl-2-[5-methyl-2-(1,3-thiazol-2-yl)benzoyl]-2-azabicyclo[3.1.1]heptan-3-yl}methyl)aniline]
OX2 pKi (SPA binding) ([1]; Table 2, [3H]EMPA 2 nM): 6.02
OX1 pKi (SPA binding) ([2]; Table 2, [3H]SB-674042 2 nM): 6.71

Cc1ccc(-n2nccn2)c(C(=O)N2C3CC(C3)[C@@H](C)C2CNc2nc3ccccc3s2)n1 (stereo partly drawn) [Example 178, cis-N-({4-methyl-2-[6-methyl-3-(2H-1,2,3-triazol-2-yl)pyridine-2-carbonyl]-2-azabicyclo[3.1.1]heptan-3-yl}methyl)-1,3-benzothiazol-2-amine]
OX2 pKi (SPA binding) ([1]; Table 2, [3H]EMPA 2 nM): 5.63
OX1 pKi (SPA binding) ([2]; Table 2, [3H]SB-674042 2 nM): 8.52

Cc1nc(C(=O)N2C3CC(C3)[C@@H](C)C2COc2ccc(F)cc2)c(-n2cccn2)s1 (mixture of isomers) [Example 141, cis-3-[(4-fluorophenoxy)methyl]-4-methyl-2-[2-methyl-5-(1H-pyrazol-1-yl)-1,3-thiazole-4-carbonyl]-2-azabicyclo[3.1.1]heptane]
OX2 pKi (SPA binding) ([1]; Table 2, [3H]EMPA 2 nM): 6.45
OX1 pKi (SPA binding) ([2]; Table 2, [3H]SB-674042 2 nM): 6.91

Cc1ccc(-n2nccn2)c(C(=O)N2C3CC(C3)[C@@H](C)C2CNc2cc3ccccc3cn2)n1 (stereo partly drawn) [Example 151, cis-N-({4-methyl-2-[6-methyl-3-(2H-1,2,3-triazol-2-yl)pyridine-2-carbonyl]-2-azabicyclo[3.1.1]heptan-3-yl}methyl)isoquinolin-3-amine]
OX2 pKi (SPA binding) ([1]; Table 2, [3H]EMPA 2 nM): 5.42
OX1 pKi (SPA binding) ([2]; Table 2, [3H]SB-674042 2 nM): 7.59

Cc1ccc(-n2ncc(C)n2)c(C(=O)N2C3CC(C3)[C@@H](C)C2COc2ccc(F)cc2)n1 (mixture of isomers) [Example 144, cis-3-[(4-fluorophenoxy)methyl]-4-methyl-2-[6-methyl-3-(4-methyl-2H-1,2,3-triazol-2-yl)pyridine-2-carbonyl]-2-azabicyclo[3.1.1]heptane]
OX2 pKi (SPA binding) ([1]; Table 2, [3H]EMPA 2 nM): 6.83
OX1 pKi (SPA binding) ([2]; Table 2, [3H]SB-674042 2 nM): 7.96

Cc1nc(C(=O)N2C(COc3ccc(F)cc3)CC3CC2C3)c(-c2ccccc2F)s1 (stereo not shown) [Example 40]
OX2 pKi (SPA binding) ([1]; Table 1, [3H]EMPA 2 nM): 6.19
OX1 pKi (SPA binding) ([2]; Table 1, [3H]SB-674042 2 nM): 7.33

Cc1nc(C(=O)N2C(CNc3ccc4ccccc4n3)CC3CC2C3)c(-c2ccccc2)s1 (stereo not shown) [Example 60, N-{[2-(2-methyl-5-phenyl-1,3-thiazole-4-carbonyl)-2-azabicyclo[3.1.1]heptan-3-yl]methyl}quinolin-2-amine]
OX2 pKi (SPA binding) ([1]; Table 1, [3H]EMPA 2 nM): 7.39
OX1 pKi (SPA binding) ([2]; Table 1, [3H]SB-674042 2 nM): 8.27

C[C@@H]1C2CC(C2)N(C(=O)c2cc(Cl)ccc2-n2nccn2)C1CNc1cnc(C2CC2)cn1 (stereo partly shown) [Example 257]
OX2 pKi (SPA binding) ([1]; Table 2, [3H]EMPA 2 nM): 5.41
OX1 pKi (SPA binding) ([2]; Table 2, [3H]SB-674042 2 nM): 7.58

Cc1ccc(-n2nccn2)c(C(=O)N2C(COc3ccc(F)cc3)CC3CC2C3)n1 (stereo not shown) [Example 39]
OX2 pKi (SPA binding) ([1]; Table 1, [3H]EMPA 2 nM): 6.19
OX1 pKi (SPA binding) ([2]; Table 1, [3H]SB-674042 2 nM): 7.64

Cc1ccc(-n2nccn2)c(C(=O)N2C3CC(C3)[C@H](C)C2COc2ccc(F)cc2)n1 (stereo partly drawn) [Example 103, trans-3-[(4-fluorophenoxy)methyl]-4-methyl-2-[6-methyl-3-(2H-1,2,3-triazol-2-yl)pyridine-2-carbonyl]-2-azabicyclo[3.1.1]heptane]
OX2 pKi (SPA binding) ([1]; Table 1, [3H]EMPA 2 nM): 5.6
OX1 pKi (SPA binding) ([2]; Table 1, [3H]SB-674042 2 nM): 8

C[C@@H]1C2CC(C2)N(C(=O)c2cc(F)ccc2-n2nccn2)C1CNc1cnc2ccccc2n1 (mixture of isomers) [Example 187, cis-N-({2-[5-fluoro-2-(2H-1,2,3-triazol-2-yl)benzoyl]-4-methyl-2-azabicyclo[3.1.1]heptan-3-yl}methyl)quinoxalin-2-amine]
OX2 pKi (SPA binding) ([1]; Table 2, [3H]EMPA 2 nM): 5.63
OX1 pKi (SPA binding) ([2]; Table 2, [3H]SB-674042 2 nM): 8.19

Cc1ccc(-n2nccn2)c(C(=O)N2C3CC(C3)[C@@H](C)C2CNc2ccc(Cl)cn2)n1 (mixture of isomers) [Example 156, cis-5-chloro-N-({4-methyl-2-[6-methyl-3-(2H-1,2,3-triazol-2-yl)pyridine-2-carbonyl]-2-azabicyclo[3.1.1]heptan-3-yl}methyl)pyridin-2-amine]
OX2 pKi (SPA binding) ([1]; Table 2, [3H]EMPA 2 nM): 5.35
OX1 pKi (SPA binding) ([2]; Table 2, [3H]SB-674042 2 nM): 7.53

Cc1nc(C(=O)N2C3CC(C3)[C@H](C)C2COc2ccc(F)cc2)c(-c2cnccn2)s1 (mixture of isomers) [Example 121, trans-3-[(4-fluorophenoxy)methyl]-4-methyl-2-[2-methyl-5-(pyrazin-2-yl)-1,3-thiazole-4-carbonyl]-2-azabicyclo[3.1.1]heptane]
OX2 pKi (SPA binding) ([1]; Table 2, [3H]EMPA 2 nM): 5.54
OX1 pKi (SPA binding) ([2]; Table 2, [3H]SB-674042 2 nM): 7.36

Cc1ccc(-n2nccn2)c(C(=O)N2C3CC(C3)[C@H](C)C2CNc2ccc(Cl)cn2)n1 (mixture of isomers) [Example 148, trans-5-chloro-N-({4-methyl-2-[6-methyl-3-(2H-1,2,3-triazol-2-yl)pyridine-2-carbonyl]-2-azabicyclo[3.1.1]heptan-3-yl}methyl)pyridin-2-amine]
OX2 pKi (SPA binding) ([1]; Table 2, [3H]EMPA 2 nM): 5.62
OX1 pKi (SPA binding) ([2]; Table 2, [3H]SB-674042 2 nM): 6.85

O=C(c1nc(C2CC2)sc1-c1ccccc1)N1C(COc2ccc(F)cc2)CC2CC1C2 (stereo not shown) [Example 53]
OX2 pKi (SPA binding) ([1]; Table 1, [3H]EMPA 2 nM): 7.13
OX1 pKi (SPA binding) ([2]; Table 1, [3H]SB-674042 2 nM): 7.58

C[C@@H]1C2CC(C2)N(C(=O)c2cc(F)ccc2-n2nccn2)C1CNc1cnc2ccccc2n1 (single isomer, unassigned) [Example 189, N-({(3R,4S) or (3S,4R)2-[5-fluoro-2-(2H-1,2,3-triazol-2-yl)benozyl]-4-methyl-2-azabicyclo[3.1.1]heptan-3-yl}methyl)quinoxalin-2-amine]
OX2 pKi (SPA binding) ([1]; Table 2, [3H]EMPA 2 nM): 5.92
OX1 pKi (SPA binding) ([2]; Table 2, [3H]SB-674042 2 nM): 8.51

Cc1ccc(-n2nccn2)c(C(=O)N2C3CC(C3)[C@@H](C)C2CNc2ccc(F)c(C)n2)n1 (mixture of isomers) [Example 196, cis-5-fluoro-6-methyl-N-({4-methyl-2-[6-methyl-3-(2H-1,2,3-triazol-2-yl)pyridine-2-carbonyl]-2-azabicyclo[3.1.1]heptan-3-yl}methyl)pyridin-2-amine]
OX2 pKi (SPA binding) ([1]; Table 2, [3H]EMPA 2 nM): 5.74
OX1 pKi (SPA binding) ([2]; Table 2, [3H]SB-674042 2 nM): 7.65

Cc1ccc(-n2nccn2)c(C(=O)N2C3CC(C3)[C@@H](C)C2CNc2cnc3ccccc3n2)n1 (single isomer, unassigned) [Example 160, N-{[(3R,4S) or (3S,4R)-4-methyl-2-[6-methyl-3-(2H-1,2,3-triazol-2-yl)pyridine-2-carbonyl]-2-azabicyclo[3.1.1]heptan-3-yl]methyl}quinoxalin-2-amine]
OX2 pKi (SPA binding) ([1]; Table 2, [3H]EMPA 2 nM): 5.98
OX1 pKi (SPA binding) ([2]; Table 2, [3H]SB-674042 2 nM): 8.68
